Measurements published in ChEMBL document CHEMBL5154907, “Discovery and Anti-Inflammatory Activity Evaluation of a Novel CDK8 Inhibitor through Upregulation of IL-10 for the Treatment of Inflammatory Bowel Disease In Vivo” (J Med Chem, 2022).

Key:
BMDC = test: Anti-inflammatory activity against R848-stimulated mouse BMDC cells assessed as upregulation of IL-10 production at 5 uM treated for 24 hrs followed by R848 stimulation for 12 hrs by ELISA method (reference value: 100 %); assay type: functional; conditions: time 36 hrs
[1] = Transcriptional activity of AP-1 in R848-stimulated mouse BMDC cells transfected with pAP1-luc assessed as ratio of AP-1 activity at 5 uM treated for 24 hrs followed by R848 stimulation for 4 hrs by luminescence based microplate reader analysis relative to control; assay type: functional; conditions: time 28 hrs
[2] = Stability of compound in human liver microsome assessed as intrinsic clearance by HPLC analysis; assay type: ADME; conditions: liver microsomes, read-out: CLH
CDK8/Cyclin C = CDK8/Cyclin C (Homo sapiens, UniProt P49336); test: Inhibition of recombinant full length His tagged human CDK8/Cyclin C expressed in Baculovirus incubated for 60 mins in presence of ATP by ADP-Glo kinase assay
CDK8/Cyclin C, sequence (P49336 whole entry): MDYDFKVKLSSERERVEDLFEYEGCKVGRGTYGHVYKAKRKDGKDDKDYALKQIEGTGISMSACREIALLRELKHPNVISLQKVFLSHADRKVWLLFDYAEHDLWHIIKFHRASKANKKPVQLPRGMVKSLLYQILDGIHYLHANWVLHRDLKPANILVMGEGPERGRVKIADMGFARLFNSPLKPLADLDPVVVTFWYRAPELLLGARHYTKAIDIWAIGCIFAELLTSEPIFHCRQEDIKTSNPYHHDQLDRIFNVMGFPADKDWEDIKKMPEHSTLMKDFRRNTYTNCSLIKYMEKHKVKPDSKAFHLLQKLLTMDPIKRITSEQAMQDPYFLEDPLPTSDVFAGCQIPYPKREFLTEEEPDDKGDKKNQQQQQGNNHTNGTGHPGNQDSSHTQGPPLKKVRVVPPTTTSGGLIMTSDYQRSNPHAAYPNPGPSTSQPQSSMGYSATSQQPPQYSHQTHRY
CDK8/Cyclin C, sequence (P24863 whole entry, further chain): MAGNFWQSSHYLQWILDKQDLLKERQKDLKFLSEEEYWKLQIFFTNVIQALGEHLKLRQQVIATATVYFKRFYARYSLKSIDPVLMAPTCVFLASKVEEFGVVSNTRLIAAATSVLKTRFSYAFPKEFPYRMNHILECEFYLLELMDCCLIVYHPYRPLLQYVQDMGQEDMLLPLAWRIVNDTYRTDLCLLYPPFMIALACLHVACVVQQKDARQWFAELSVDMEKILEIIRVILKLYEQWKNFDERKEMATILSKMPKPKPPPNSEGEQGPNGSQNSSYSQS

[3] = target: CDK8/Cyclin C (Homo sapiens) (UniProt P49336+P24863); test: Inhibition of recombinant full length His tagged human CDK8/Cyclin C expressed in Baculovirus at 200 nM incubated for 60 mins in presence of ATP by ADP-Glo kinase assay

microsomal CLint [2] [µL/min/mg]	IC50 (CDK8/Cyclin C) [nM]	inhibition [3] [%]	Structure (SMILES)	Activity (BMDC) [%]	Ratio [1]
10.4	87	78	O=C(Nc1ccccc1)c1cc(-c2ccc(C(=O)N3CCNCC3)cc2)ccn1	72	2.3
	134	62	Nc1ncc(-c2ccc(C(=O)N3CCNCC3)cc2)cc1C(=O)Nc1ccccc1	61	2.7
12.9	72	75	O=C(c1ccc(-c2cc(O)c3c(=O)cc(-c4ccccc4)oc3c2)cc1)N1CCNCC1	43	2.4
7.3	80	79	O=C(Nc1ccccc1)c1cncc(-c2ccc(C(=O)N3CCNCC3)cc2)c1	76	2.8
11.3	5900		COc1c(O)cc(O)c2c(=O)cc(-c3ccccc3)oc12 [WOGONIN]	65	1.4
	155	62	Cc1ccc(-c2cc(O)c3c(=O)cc(-c4ccccc4)oc3c2)cc1	83	2.6
	214	57	O=C(Nc1ccccc1)c1ccc(O)c(-c2ccc(C(=O)N3CCNCC3)cc2)c1	26	1.2
	81	77	COc1ccc(NC(=O)c2cncc(-c3ccc(C(=O)N4CCNCC4)cc3)c2)cc1	74	1.7
	947	27	Nc1ccccc1NC(=O)c1cncc(-c2ccc(C(=O)N3CCNCC3)cc2)c1	24	1.63
	260	44	Nc1ncc(C(=O)Nc2ccccc2)cc1-c1ccc(C(=O)N2CCNCC2)cc1	56	1.7
10.9	234	46	O=c1cc(-c2ccccc2)oc2cc(-c3ccccc3)cc(O)c12		1.5
	104	73	CCc1cccc(NC(=O)c2cncc(-c3ccc(C(=O)N4CCNCC4)cc3)c2)c1	34	1.7
	75	76	Cc1cccc(NC(=O)c2cncc(-c3ccc(C(=O)N4CCNCC4)cc3)c2)c1	62	1.6
	1140	24	O=C(Nc1cccc(C(F)(F)F)c1)c1cncc(-c2ccc(C(=O)N3CCNCC3)cc2)c1	42	1.41
13.7	190	53	O=c1cc(-c2ccccc2)oc2cc(-c3ccc(N4CCNCC4)cc3)cc(O)c12	80	1.5
	1470	20	O=C(Nc1ccc(Cl)cc1)c1cncc(-c2ccc(C(=O)N3CCNCC3)cc2)c1	33	1.55
15.9	144	69	O=c1cc(-c2ccccc2)oc2cc(-c3ccc(CN4CCNCC4)cc3)cc(O)c12	33	1.9
7	65	80	COc1cccc(NC(=O)c2cncc(-c3ccc(C(=O)N4CCNCC4)cc3)c2)c1	65	2
10.9	80	65	O=C(Nc1ccccc1)c1ccnc(-c2ccc(C(=O)N3CCNCC3)cc2)c1	29	2.4
	1050	35	CC(=O)Nc1ccc(NC(=O)c2cncc(-c3ccc(C(=O)N4CCNCC4)cc3)c2)cc1	37	1.1
	3650	34	Nc1ccc(NC(=O)c2cncc(-c3ccc(C(=O)N4CCNCC4)cc3)c2)cc1	30	1.72
	96	71	CCc1ccc(NC(=O)c2cncc(-c3ccc(C(=O)N4CCNCC4)cc3)c2)cc1	40	1.9
9.5	530	30	O=C(Nc1ccccc1)c1cc(O)cc(-c2ccc(C(=O)N3CCNCC3)cc2)c1	82	1.3
	112	64	Nc1ccc(-c2cc(O)c3c(=O)cc(-c4ccccc4)oc3c2)cc1	21	2.6
13	70	81	Cc1ccccc1NC(=O)c1cncc(-c2ccc(C(=O)N3CCNCC3)cc2)c1	70	1.5
